Assay results as given in patent US20150290240A1 (Fred Hulchinson Cancer Research Center, priority 2012, published 2015).

How the values were obtained:
[1] = test system: mouse model of heart attack (myocardial ischemia and reperfusion); experiment: Infarct size by morphometry (TTC and Evans blue) after LAD ligation and 2 hours of reperfusion; assay type: in vivo, mice
Experimental: (§1) For the myocardial infarction model, open chest ligation of the left descending coronary artery (LAD ligation) was performed in mice. At 55 minutes post initiation of ischemia, either vehicle or test agent was injected into the femoral vein of each mouse. The heart muscle was reperfused by releasing the ligature at 60 minutes post initiation of ischemia. Mice were then sacrificed at either 2 hours or 2 days post reperfusion for infarct size measurement and blood analysis or heart function assays, respectively, as described below.
In order to examine the effect of NaHSe on myocardial infarct size, mice were subjected to LAD ligation, and after 2 hours of reperfusion, infarct size was measured by morphometry (FIG. 1). Six groups of mice were utilized in this study, including a saline vehicle group and five test groups that received 50, 200, 800, 1600 and 2400 μg/kg of NaHSe. To be certain that all animals in the study were treated in a similar way, the area at risk (AAR) as a proportion of the left ventricle was determined (FIG. 1, left panel).
Area at risk and infarct size (Inf) were measured using the specific dyes TTC and Evans blue. Processed images were generated in an unbiased way by setting constant thresholds and allowing Photoshop® to generate the images that were quantitated to generate FIG. 1.

[2] = test system: neutrophils in the myocardium; experiment: Neutrophil count in heart sections following the heart attack procedure; assay type: in vivo, mice; conditions: vs saline treated animals
Experimental: as §1
In order to determine whether NaHSe decreased inflammation in the hearts of animals following the heart attack procedure, neutrophils were counted in sections of hearts of saline and NaHSe treated animals.

cardiac troponin I = experiment: Plasma cardiac troponin I by ELISA after LAD ligation and 2 hour reperfusion; assay type: in vivo, mice; conditions: end of 2 hour reperfusion
Experimental: as §1
To provide an independent means of testing for improvement, the level of a heart specific protein, cardiac troponin I, was assessed in the blood of the animals after the 2 hour reperfusion period. Five minutes prior to reperfusion, three groups of mice were given 200 μg/kg NaHSe, 50 μg/kg NaHSe, or saline by I.V. injection through the femoral vein. At the end of the 2 hour reperfusion, blood was collected and plasma cardiac troponin I was measured by ELISA.

[3] = test system: glutathione peroxidase 2 (GPX-2); experiment: Antibody staining of heart sections for glutathione peroxidase 2; assay type: in vivo, mice; conditions: 800 μg/kg; compared to saline and sham (no heart attack) animals
Experimental: as §1
Therefore, the hypothesis that the therapeutic value of sodium selenide is its accumulation in cardiomycytes during reperfusion for the synthesis of selenoproteins, such as glutathione peroxidase, was tested. Heart sections from animals that were saline treated or NaHSe (800 μg/kg) treated were stained with an antibody specific for the selenoprotein glutathione peroxidase 2 (GPX-2).

[4] = Oxidation of selenide solutions in water or glutathione, observed visually; assay type: physicochemical; conditions: 50 mM selenide in 150 mM GSH vs in water; 8 minutes immediately following preparation
[5] = test system: mouse model of heart attack (heart function); experiment: Echocardiography 2 days post the heart attack procedure; assay type: in vivo, mice; conditions: 800 μg/kg; 48 hours of reperfusion after 60 min LAD ligation; vs saline
Experimental: as §1
To further test the hypothesis that NaHSe improves outcome following myocardial infarction, mice were survived for 2 days post the heart attack procedure and then subjected to echocardiography.

Q: What does the source list for `[SeH2]` [NaHSe]?
A: benefit relative to infarct size vs saline ([1]; 800 μg/kg (0.8 mg/kg) at reperfusion, selenide vs selenite comparison (FIG. 6)): provided benefit; reduction in infarct size in comparison to vehicle alone ([1]; 800 μg/kg I.V. femoral vein 5 min prior to reperfusion, 60 min LAD ligation, 2 hours reperfusion): 88%; infarct size vs saline group ([1]; 50, 200, 800, 1600 and 2400 μg/kg I.V. 5 min prior to reperfusion, 2 hours reperfusion): statistically significant dose dependent decreases; accumulation of neutrophils in the myocardium [2]: significantly reduced; plasma cardiac troponin I compared to saline control (cardiac troponin I; 50 μg/kg I.V. 5 min prior to reperfusion): statistically significant decrease; plasma cardiac troponin I compared to saline control (cardiac troponin I; 200 μg/kg I.V. 5 min prior to reperfusion): statistically significant decrease; GPX-2 antibody staining of heart sections [3]: striking increase; oxidation of selenide (dark oxidized forms in solution) [4]: reduced levels of oxidation; fractional shortening [5]: statistically significant improvement; left ventricular ejection fraction [5]: statistically significant improvement
